Test: gradient 5% acetonitrile 3 min, to 50% in 2 min, to 85% in 15 min, held 3 min, 100 µL/min
Conditions: column: Zorbax Extend-C18 2.1 x 50 mm; eluents: water / acetonitrile, 0.1% formic acid
Outline: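 The system's dead and dwell volumes were 40 μL and 900 μL, with a Zorbax Extend-C18 column (2.1 × 50 mm, 1.8 μm) run at 100 μL/min in water and acetonitrile containing 0.1% formic acid each. Pure standards were analyzed in mixtures of ~100 molecules by HPLC–quadrupole time-of-flight mass spectrometry in positive and negative ionization mode. Retention time was assigned from computationally picked, manually inspected adduct peaks.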

Compound	RP-LC retention time [s]
CCC(C(=O)Nc1cccc(C)c1)n1cnc2nc3c(cc2c1=O)CCCC3 (stereo not drawn)	834
O=C1NCCCn2cc(S(=O)(=O)Nc3ccc(F)cc3)cc21	639
CC(C)n1nc(CNC(=O)c2ccccn2)c2ccccc21	874
O=C(Cn1nc2c3sc(N4CCCCC4)nc3ncn2c1=O)Nc1ccccc1	768
Cc1c(Cl)cccc1-n1ccn2cc(-c3ccccc3)nc2c1=O	880
CCc1ccc(NC(=O)c2cn(CC)nc2S(=O)(=O)N2CCSCC2)cc1	1100
O=C(NCc1ccccn1)c1ccc2c(c1)N(CC(=O)N1CCCC1)C(=O)CO2	573
COC(=O)c1cc(OCC(=O)Nc2ccc(OC)c(Cl)c2)c2cc(OC)ccc2n1	867
Cc1cc(C)cc(N2CCC(NC(=O)c3ccccc3)C2=O)c1 (stereo not drawn)	857
COc1ccc(NC(=O)CN2C(=O)CC(C)Sc3ccccc32)c(OC)c1 (stereo not drawn)	853
O=C(Cn1ccc2ccccc21)N1CCN(c2ccc(C(F)(F)F)cn2)CC1	982
CCn1nccc1-c1cccc(-c2noc(CNS(=O)(=O)c3ccc(Cl)cc3)n2)c1	986
O=C(O)c1cccc2c1CCN2S(=O)(=O)c1ccccc1F	812
CSc1nnc(-c2nn(C)c3c2CN(C(=O)c2ccccc2)CC3)n1C	680
Cc1nc(-n2cccc2)sc1C(=O)NCc1cc(-c2cccs2)on1	894
O=C1COc2cc(Cl)ccc2N1Cc1nc(-c2ccc(OC(F)(F)F)cc2)no1	1220
CCn1cnc2cc(-c3noc(CNC(=O)Cc4ccc(Cl)cc4)n3)ccc21	658
CCCc1c(C)nc2ncnn2c1N1CCN(c2ccccn2)CC1	583
CCc1ccccc1N1C(=O)CN(S(C)(=O)=O)CC1(C)C(=O)NCc1ccc(Cl)cc1 (stereo not drawn)	893
COc1ccc(NC(=O)C2CCN(c3cc(N4CCCCC4)ncn3)CC2)c(OC)c1	694
CCOC(=O)c1c(C)oc2nc(C)nc(NCCc3ccc(Cl)cc3)c12	1380
O=C(Nc1ccccc1F)N1CCCC(Cn2c(C3CC3)nc3cccnc32)C1 (stereo not drawn)	656
Cc1ccc(C(=O)N2CCCn3nc(-c4ccc(Cl)cc4)cc3C2)s1	931
Clc1ccc(OCc2nn3c(CSc4ccccc4)nnc3s2)cc1	1040
COC(=O)C1=CN(c2ccc(OC)c(Cl)c2)c2ccc(F)cc2S1(=O)=O	886
O=C(NCCN1CCCCCC1)c1cc2n(n1)CCCN(Cc1ccc(Cl)cc1)C2=O	670
O=c1c2cc(-c3ccc4c(c3)OCO4)nn2ccn1Cc1nc(-c2cccc(Cl)c2)no1	1080
CSc1ncccc1-c1nc(-c2ccc3oc(C)nc3c2)no1	1100

Compound	RP-LC retention time [s]
O=C(Nc1cccc(Cl)c1)Nc1ncc(CCNc2ncnc3ccsc23)s1	721
CSc1ccc(-c2nc3cnccn3c2Nc2cccc(C)c2C)cc1	1060
CSc1cccc(N2C=C(C(=O)N3CCCC3)S(=O)(=O)c3ccccc32)c1	819
O=C(NC1CCCCCCC1)C1CCN(C(=O)c2ccccc2F)CC1	855
CCN1C(=O)c2cccnc2Sc2cc(CNC(=O)c3ccc(OC)cc3)ccc21	755
Cc1ccc(N2CC(c3noc(-c4ccccn4)n3)CC2=O)cc1 (stereo not drawn)	797
Cc1cc(=O)n(CC(=O)Nc2ccccc2F)c(-c2ccccc2)n1	1000
Cc1ccsc1C(=O)N1CCN(c2ccc(=O)n(-c3cccc(Cl)c3)n2)CC1	853
Fc1ccc(Cn2cc(-c3noc(-c4ccc5cc[nH]c5c4)n3)nn2)cc1	952
CCN1C(=O)NC(c2ccccc2C(F)(F)F)C2=C1CN(CCC(=O)NCC(C)C)C2=O (stereo not drawn)	661
COC(=O)C1=CN(c2ccc(C)cc2)c2cc(F)ccc2S1(=O)=O	946
Cc1ccc(-c2nc3cnc(Br)cn3c2Nc2ccc3c(c2)OCCO3)cc1	956
Cc1cc(C)c(NS(=O)(=O)c2c(C)cc(C)cc2C)c(C)c1	1120
O=c1n(Cc2ccc(Cl)cc2)nc2ccc(S(=O)(=O)N3CCCCC3)cn12	1000
O=C(Nc1cccc(Cl)c1)c1cn(CC2CCCO2)cc2c(=O)n(-c3ccccc3)nc1-2 (stereo not drawn)	1100
CCOc1cc(C(=O)NC(C)C(=O)Nc2nc3ccccc3[nH]2)cc(OCC)c1OCC (stereo not drawn)	745
O=C(Nc1cccnc1N1CCOCC1)C1CC1	576
COc1ccc(-c2nc3ncccn3c2NCc2ccc(F)cc2)cc1OC	692
CCCN1C(=O)CCc2cc(NS(=O)(=O)c3ccc(C(F)(F)F)cc3)ccc21	914
COCCN1C(=O)CCc2cc(NS(=O)(=O)c3cc(C)c(C)cc3C)ccc21	833
Cc1c(-c2nsc(Nc3ccccc3)n2)nnn1-c1cccc(Cl)c1	1070
Cc1[nH]c(C(=O)N2CCC(CC(=O)N3CCN(c4ccccn4)CC3)CC2)c(C)c1C(=O)OC(C)C	628
Cn1cnc(S(=O)(=O)N2CCOc3ccc(NC(=O)C4CC4)cc3C2)c1	658
CCn1c(C(=O)NCCCN2CCCC(C)C2)c(N2CCCC2=O)c2cc(OC)ccc21 (stereo not drawn)	666
CCCc1cc(SCC(=O)Nc2nccs2)ncn1	692
Cc1ccccc1S(=O)(=O)N1CCC(n2cnnc2C(C)C)CC1	738
COc1ccc(CCNc2ncnc3c2cnn3-c2ccccc2)cc1OC	783

Continued, values first:

RP-LC retention time [s]	Compound
898	CCCc1cc(C2CCCN2C(=O)c2c(OC)cccc2OC)no1 (stereo not drawn)
644	Cc1noc([C@@H]2CN(C(=O)CC(C)(C)C)C[C@H]2CO)n1
918	O=C(Nc1cc(F)cc(F)c1)c1c(O)c2cccnc2n(-c2ccc(F)cc2)c1=O
770	CCc1ccc(NC(=O)C2(C)Oc3cccnc3NC2=O)cc1 (stereo not drawn)
882	CCN(C(=O)C(=O)c1c[nH]c2ccccc12)c1cccc(Cl)c1
586	COc1ccc(N2CCN(c3cc(-c4nc(-c5ccccc5)no4)c4ccccc4n3)CC2)cc1
739	COc1ccc(C(=O)N2CCN(c3cc(-c4cccs4)[nH]n3)CC2)c(OC)c1
950	O=C(Cc1c(F)cccc1Cl)Nc1nc2c(s1)CN(S(=O)(=O)c1ccccc1)CC2
1110	COC(=O)c1sccc1NC(=O)Cn1c(C)cc(C)c(-c2nc(-c3ccc(C)cc3)no2)c1=O
788	CC1=C(c2ccc(C(C)C)cc2)S(=O)(=O)N=C1N1CCC(NC(=O)C2CCOC2)CC1 (stereo not drawn)
728	CCOC(=O)CNC(=O)N1CCCC1c1ccc(OC)cc1 (stereo not drawn)
645	Cc1cc(N2CCN(C)CC2)nc2ccc(NC(=S)N3CCN(c4ccc(Cl)cc4)CC3)cc12
957	COc1cc(NC(=O)CSc2cc(N3CCN(c4ccccc4OC)CC3)ncn2)cc(OC)c1
962	CCOc1ccccc1CNC(=O)CN1C(=O)CSc2cccn2-c2ccccc21
602	O=C(CN1CCN(C(=O)Nc2ccc(Br)cc2)CC1=O)NCCN1CCCCC1
628	CN(CCOc1ccc(CC2SC(=O)NC2=O)cc1)c1ccccn1 (stereo not drawn)
770	CNC(=O)C1Cc2ccccc2CN1S(=O)(=O)c1ccc(OC)cc1 (stereo not drawn)

RP-LC retention time [s]	Compound
1290	CCCCn1c(=O)c2ccccc2n(Cc2nc(-c3ccc(F)c(Cl)c3)no2)c1=O
769	Cc1cnc2c(c1SCC(=O)N(C)c1ccccc1)c(=O)n(C)c(=O)n2C
612	Cc1cccc(NC(=O)Nc2cnn(-c3ncncc3N3CCOCC3)c2)c1C
722	Cc1ccc(C)c(CNC(=O)C2CCN(c3cnc4nccnc4c3)CC2)c1
667	O=C(c1ccsc1)N1CCCC(c2nncn2-c2ccccc2)C1 (stereo not drawn)
722	CCC(=O)Nc1ccc(-n2cnc(C(=O)NC(C)c3ccccc3)c2)nc1 (stereo not drawn)
918	CCS(=O)(=O)c1nc2ccc(NS(=O)(=O)CCc3ccccc3)cc2s1
601	CCN(CC)C(=O)c1cnc2nc(C)ccc2c1Nc1ccc2c(c1)OCCO2
1170	Cc1ccc(S(=O)(=O)N2CCc3nc(-c4ccccc4)ncc3C2)c(C)c1
1140	CC1CCCN(c2nn(CC(=O)Nc3ccccc3F)c(=O)c3ccccc23)C1 (stereo not drawn)
792	O=C(NC1CCc2ccccc21)C1CCN(C(=O)c2ncn3c2COC(c2ccc(F)cc2)C3)CC1 (stereo not drawn)
1250	Cc1nc2cc(-c3noc(-c4ccc(Cl)cc4Cl)n3)ccc2o1
1340	Cc1ccccc1-c1nc(C2CCN(S(=O)(=O)c3ccc(C(C)C)cc3)CC2)no1
645	COc1ccc(Cl)c2c(=O)c3c([nH]c12)CCN(CC(=O)Nc1cccc(Cl)c1)C3
550	CCN1CCN(CCNC(=O)c2csc(-c3ccc(N4CCCC4)nc3)n2)CC1
893	COc1cccc(-n2ccn3cc(-c4ccc(Br)cc4)nc3c2=O)c1
